# According to patent EP1371368A1, “Salvianolic acid components as lipase inhibitors” (N.V. Nutricia, priority 2002, dated 2003):
# Molecular target: T1, porcine pancreas lipase (Sus scrofa, UniProt P00591)
# T1 construct: purchased ICN Biomedicals BV
# T1 sequence (P00591 1-450): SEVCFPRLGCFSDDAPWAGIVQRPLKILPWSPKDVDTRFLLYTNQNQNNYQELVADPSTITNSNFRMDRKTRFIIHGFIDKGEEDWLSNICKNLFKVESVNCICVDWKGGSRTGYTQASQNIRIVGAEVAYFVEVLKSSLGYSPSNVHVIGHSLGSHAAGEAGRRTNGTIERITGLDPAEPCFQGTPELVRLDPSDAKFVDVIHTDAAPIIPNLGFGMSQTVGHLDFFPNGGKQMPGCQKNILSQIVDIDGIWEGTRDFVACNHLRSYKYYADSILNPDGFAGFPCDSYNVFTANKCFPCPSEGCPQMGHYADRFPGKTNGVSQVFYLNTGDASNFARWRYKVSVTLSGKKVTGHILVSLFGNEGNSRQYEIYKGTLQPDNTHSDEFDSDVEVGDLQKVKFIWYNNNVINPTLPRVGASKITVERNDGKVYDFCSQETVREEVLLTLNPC
# Assay: In vitro lipase inhibitory activity (hydrolysis of p-nitrophenyl caprylate to p-nitrophenol, absorption at 405 nm)
# Assay type: biochemical
# Conditions: inhibition of lipase activity compared to control at the final concentration printed in the same row
# Method: Lipase activity was determined by measuring the rate of hydrolysis of p-nitrophenyl caprylate to p-nitrophenol (yellow) and caprylate.
# Phosphate buffer A (200 mM phosphate buffer with a pH 7) was prepared by mixing: 488 ml 200 mM Na2HPO4·H2O (17.5 gram/500 ml) with 296 ml 200 mM NaH2PO4·H2O (13.8 gram/500 ml) followed by adjustment of the pH. Substrate solution was prepared freshly by mixing: • a) 500 ml buffer B (200 mM phosphate buffer A pH 7 containing 0.1% (w/v) Triton x-100) and • b) 5.3 ml stock solution of the substrate (250 mM p-nitrophenyl caprylaat (pnp) in acetonitrile). […] The final concentration of pnp in the substrate solution is thus 2.66 mM pnp. Subsequently, the substrate solution was placed in an ultrasonic bath for exactly 3 minutes. […]
# Samples were prepared by adding 40 mg of commercial extracts of Salvia material to 4 ml DMSO, incubating at room temperature for 15 minutes, followed by centrifugation to remove the insolubles. […] For each sample the capacity to inhibit lipase activity was determined.
# 25 µl of sample (25 µl DMSO for control) was added to 150µl substrate solution and incubated for 10 minutes at 37 °C. Subsequently 25 µl lipase solution was added and the p-nitrophenol formation was determined during a period of 10 minutes by measuring the absorption increase at 405 nm. […]
smiles,measurement,value
CCCCCCCCCCC[C@@H](C[C@@H]1OC(=O)[C@H]1CCCCCC)OC(=O)[C@H](CC(C)C)NC=O [Orlistat],Inhibition (%),50%
